Test results reported in patent US20070191334A1, “Tricyclic imidazopyridines” (ALTANA PHARMA AG, priority 2004, published 2007).

Test system: pentagastrin-stimulated acid secretion of the perfused rat stomach
Assay: Secretion-inhibiting action on the perfused rat stomach (pentagastrin-stimulated acid secretion, intraduodenal administration in vivo)
Conditions: Table A, dose 1 μmol/kg i.d., anesthetized CD rat
Excerpt: Testing of the Secretion-Inhibiting Action on the Perfused Rat Stomach
In Table A which follows, the influence of the compounds of the formula 1 according to the invention on the pentagastrin-stimulated acid secretion of the perfused rat stomach after intraduodenal administration in vivo is shown.
In Table B which follows, the influence of the compounds of the formula 1-a according to the invention and of their optical antipodes of the formula 1-b on the pentagastrin-stimulated acid secretion of the perfused rat stomach after intraduodenal administration in vivo is shown.
The abdomen of anesthetized rats (CD rat, female, 200-250 g; 1.5 g/kg i.m. urethane) was opened after tracheotomy by a median upper abdominal incision and a PVC catheter was fixed transorally in the esophagus and another via the pylorus such that the ends of the tubes just projected into the gastric lumen. The catheter leading from the pylorus led outward into the right abdominal wall through a side opening.
After thorough rinsing (about 50-100 ml), warm (37° C.) physiological NaCl solution was continuously passed through the stomach (0.5 ml/min, pH 6.8-6.9; Braun-Unita I). The pH (pH meter 632, glass electrode EA 147; φ=5 mm, Metrohm) and, by titration with a freshly prepared 0.01N NaOH solution to pH 7 (Dosimat 665 Metrohm), the secreted HCl were determined in the effluent in each case collected at an interval of 15 minutes.
The gastric secretion was stimulated by continuous infusion of […] (=1.65 ml/h) of i.v. pentagastrin (left femoral vein) about 30 min after the end of the operation (i.e. after determination of 2 preliminary fractions). The substances to be tested were administered intraduodenally in a 2.5 ml/kg liquid volume 60 min after the start of the continuous pentagastrin infusion. The body temperature of the animals was kept at a constant 37.8-38° C. by infrared irradiation and heat pads (automatic, stepless control by means of a rectal temperature sensor).

Structure (SMILES) | Inhibition of acid secretion (%)
COCCNC(=O)c1c(C)nc2c3c(c(C(=O)N(C)C)cn12)CCC(c1ccccc1)O3 (centres unmarked) [Example 4, 2-Methyl-9-phenyl-7H-8,9-dihydro-pyrano[2,3-c]imidazo[1,2-a]pyridine-3,6-dicarboxylic acid 3-[(2-methoxyethyl)amide]6-dimethylamide] | >40%
CC#CC(=O)c1c(C)nc2c3c(c(C(=O)N(C)C)cn12)CCC(c1ccccc1)O3 (centres unmarked) [Example 6, 2-Methyl-3-(1-oxo-2-butynyl)-9-phenyl-7H-8,9-dihydro-pyrano[2,3-c]imidazo[1,2-a]pyridine-6-carboxylic acid dimethylamide] | >40%
CC(=O)c1c(C)nc2c3c(c(C(=O)N(C)C)cn12)CCC(c1ccccc1)O3 (centres unmarked) [Example 9, 3-Acetyl-2-methyl-9-phenyl-7H-8,9-dihydro-pyrano[2,3-c]imidazo-[1,2-a]pyridine-6-carboxylic acid dimethylamide] | >40%
Cc1nc2c3c(c(C(=O)N4CCC4)cn2c1C)CCC(c1ccccc1)O3 (centres unmarked) [Example 11, (2,3-Dimethyl-9-phenyl-7H-8,9-dihydro-pyrano[2,3-c]-imidazo[1,2-a]pyridin-6-yl)-azetidin-1-yl methanone] | >70%
Cc1nc2c3c(c(C(=O)NC4CC4)cn2c1C)CCC(c1ccccc1)O3 (centres unmarked) [Example 13, 2,3-Dimethyl-9-phenyl-7H-8,9-dihydro-pyrano[2,3-c]-imidazo[1,2-a]pyridine-6-carboxylic acid cyclopropylamide] | >70%
